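Cultured in 96-well plates, cells were exposed to test compound for 48 hours across five concentrations. GI50 marks 50% less growth. TGI: total growth inhibition.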
Legend:
Test in all cases: growth of human tumour cells (NCI), 48 h
[1] = test system: LOX IMVI melanoma
[2] = test system: MDA-MB-231 breast
[3] = test system: NCI-H460 lung
[4] = test system: NCI/ADR-RES ovarian
[5] = test system: OVCAR-8 ovarian
[6] = test system: RPMI-8226 leukemia
[7] = test system: RXF 393 renal
[8] = test system: SK-MEL-28 melanoma
[9] = test system: SNB-75 CNS
[10] = test system: UACC-62 melanoma

Structure (SMILES) | GI50 [1] [µM] | TGI [1] [µM] | GI50 [2] [µM] | TGI [2] [µM] | GI50 [3] [µM] | TGI [3] [µM] | GI50 [4] [µM] | TGI [4] [µM] | GI50 [5] [µM] | TGI [5] [µM] | GI50 [6] [µM] | TGI [6] [µM] | GI50 [7] [µM] | TGI [7] [µM] | GI50 [8] [µM] | TGI [8] [µM] | GI50 [9] [µM] | TGI [9] [µM] | GI50 [10] [µM] | TGI [10] [µM]
CCOC(=O)NC(=S)N(CC(=O)c1cc(OC)c(OC)c(OC)c1)c1ccc(Cl)cc1 | 23.7 | > 100 | 45.9 | > 100 | 52.5 | > 100 | 56.5 | > 100 | > 100 | > 100 | 30.2 | > 100 | 17.2 | 89.7 | 75.8 | > 100 | 34.1 | > 100 | 55.2 | > 100
CCN1CC2(C)CCC(OC)C34C5CC6CCC(O)(C5C(=O)O6)C(C(O)C23)C14 (stereo not given) | – | > 100 | – | > 100 | – | > 100 | – | > 100 | – | > 100 | – | > 100 | – | > 100 | – | > 100 | – | > 100 | – | > 100
Nc1c(C(=O)c2ccc(Cl)c(Cl)c2)[nH]c(NCc2ccccc2)c1C(=S)Nc1ccccc1 | – | 4.53 | – | 17.6 | – | 20.7 | – | 4.72 | – | 30.2 | – | 6.03 | – | 27.3 | – | 18.9 | – | 24.1 | – | 29.2
O=C(O)C(Cc1ccccc1)NCc1c(O)ccc2c(-c3ccccc3)cc(=O)oc12 (stereo not given) | – | > 100 | – | > 100 | – | > 100 | – | > 100 | – | > 100 | – | > 100 | – | > 100 | – | > 100 | – | > 100 | – | > 100
C=C1c2nc3ccccc3n2C=C(c2ccc(C)cc2)N1c1ccc(OC)cc1 | – | > 100 | – | > 100 | – | > 100 | – | > 94.8 | – | > 100 | – | > 58.5 | – | > 100 | – | > 100 | – | > 100 | – | > 100
NC(=O)[C@H](Cc1ccc(O)cc1)Nc1c(O)c2c(c(O)c1Cl)C(=O)C=CC2=O | – | > 4.65 | – | 5.23 | – | > 10 | – | > 7.25 | – | > 6.26 | – | 7 | – | 9.56 | – | 4.64 | – | > 10 | – | 4.29
Clc1ccc2c(NCCCCCCNc3ccnc4cc(Cl)ccc34)ccnc2c1 | – | 3.35 | – | 10.2 | – | 6.3 | – | 27.9 | – | 4.9 | – | 6.53 | – | 6.35 | – | 9.78 | – | 8.61 | – | 8.66
CC(=O)NC1C(OCc2ccccc2)OC(CO)C(O)C1OC(C)C(=O)N[C@@H](C)C(=O)N[C@H](CCC(=O)NCCNCCNc1c2ccccc2nc2cccc([N+](=O)[O-])c12)C(N)=O (stereo not given in full) | – | 0.534 | – | 0.639 | – | 0.0486 | – | 10.6 | – | 0.457 | – | 0.381 | – | 0.0844 | – | 0.723 | – | 0.883 | – | 0.199
CCOP(=O)(/C=C/n1cc(C)c(=O)[nH]c1=O)OCC | – | > 100 | – | > 100 | – | > 100 | – | > 100 | – | > 100 | – | > 100 | – | > 100 | – | > 100 | – | > 100 | – | > 100
CC(C)(CO[C@H]1C[C@H]2CC[C@@]1(C)C2(C)C)[N+](=O)[O-] | – | 35.1 | – | 34.6 | – | 38.5 | – | 90.3 | – | 56.8 | – | 38.7 | – | 26.1 | – | 34.9 | – | 45.1 | – | 41.7
O=C1Nc2ccccc2/C1=C\c1c(Cl)n(-c2ccccc2)c2ccccc12 | – | 17.8 | – | 13.7 | – | 21.7 | – | 8.67 | – | 40.8 | – | > 100 | – | 10.9 | – | > 100 | – | 7.03 | – | 66.7
COC1(CC[C@@H](C)COC2OC(CO)C(O)C(O)C2O)OC2C[C@H]3[C@@H]4CC[C@H]5C[C@@H](OC6OC(CO)C(OC7OC(CO)C(O)C(O)C7O)C(O)C6OC6OC(C)C(O)C(O)C6O)[C@H](O)C[C@]5(C)[C@H]4CC[C@]3(C)C2[C@@H]1C (stereo not given in full) | – | 3.22 | – | 3.66 | – | 9.43 | – | > 20.6 | – | 3.75 | – | 4.58 | – | 3.85 | – | 3.37 | – | 3.49 | – | 3.45
COc1nc(Cl)nc(N[C@H](C)c2c3ccccc3cc3ccccc23)n1 | – | 33.2 | – | 34.4 | – | 33.9 | – | 31.3 | – | 28.4 | – | 21.1 | – | 25.9 | – | 10.2 | – | 76.4 | – | 13.8
Cc1cn(CCCCCCOC(=O)NC(CCCNC(N)=O)C(=O)O)c(=O)[nH]c1=O (stereo not given) | – | > 100 | – | > 100 | – | > 100 | – | > 100 | – | > 100 | – | > 100 | – | > 100 | – | > 100 | – | > 100 | – | > 100
O=S(=O)(Nc1nc2ccccc2nc1N1CCCCCC1)c1ccccc1 | – | > 100 | – | > 100 | – | 33.5 | – | > 100 | – | > 100 | – | > 100 | – | 57.5 | – | > 100 | – | 86.1 | – | 52.9

Source: PubChem BioAssay (NCI)
